Test results taken from article PMC4948833, “A Sensitive and Robust High-Throughput Screening Assay for Inhibitors of the Chikungunya Virus nsP1 Capping Enzyme” (PLoS ONE, 2016).

Columns and labels:
CHIKV nsP1 [1] = assay: FP Kd determination of GTP-Bodipy and ATP-Bodipy with purified CHIKV nsP1; details: fluorescence polarization, nsP1 titrated 3 μM to 1 nM, 1 hour 25°C
CHIKV nsP1 [2] = assay: HTS validation potency repeatability, EC50 of GTP analogs in two independent FP runs
[3] = test system: CHIKV nsP1 GTP binding site; assay: FP competition assay, displacement of GTP-Bodipy by GTP and RNA cap analogs (apparent Ki / EC50)
[4] = test system: CHIKV nsP1 guanylation activity; assay: Guanylation assay, covalent nsP1-GTP-680 formation, SDS-PAGE fluorescence; details: 100 μM analog, Fig 4 data; for Percent of Control: single replicates, scaled guanylation

Q: “Bodipy-γ-phosphate-labeled GTP analog [GTP-Bodipy]” was tested. Which Kd (CHIKV nsP1 [1]; 10 nM GTP-Bodipy) did it give?
A: Its Kd is 100 nM.

Q: With “Bodipy-γ-phosphate-labeled ATP analog [ATP-Bodipy]” as the compound, how does the Kd (CHIKV nsP1 [1]; 5 nM ATP-Bodipy) read?
A: Its Kd is 2100 nM.

Q: With `Nc1nc2c(ncn2[C@@H]2O[C@H](COP(=O)(O)OP(=O)(O)OP(=O)(O)OC[C@H]3O[C@@H](n4cnc5c(N)ncnc54)[C@H](O)[C@@H]3O)[C@@H](O)[C@H]2O)c(=O)[nH]1` [GpppA] as the compound, how does the “Geometric Mean Potency” value (CHIKV nsP1 [2]; first set of rows) read?
A: Its value is 4.749.

Q: What about the “Geometric Mean Potency” value (CHIKV nsP1 [2]; second set of rows) of the same compound?
A: The value was 4.683.

Q: What about the “affinity for nsP1 GTP binding site / ability to compete with GTP-Bodipy (in words)” value ([3]; FP competition, compared with GTP) of the same compound?
A: The value was “better competitor than me^7GpppA”.

Q: What about the Ki ([3]; read-out: Average Ki, apparent Ki, 500 nM nsP1, 10 nM GTP-Bodipy, 1 hour 25°C) of the same compound?
A: The Ki was 1890 nM.

Q: And the “Average POC” value ([4]; mean of replicates)?
A: Its value is 66.8805.

Q: What about the “Percent of Control” value ([4]; 100 µM) of the same compound?
A: The value was 57.9814.

Q: What about the “Percent of Control” value ([4]; listed as GpppA2, 100 µM) of the same compound?
A: The value was 71.1847.

Q: What about the “Percent of Control” value ([4]; listed as GpppA3, 100 µM) of the same compound?
A: The value was 71.4754.
